Experimental data reported in patent US9809587B2, “Pesticidally active heterocyclic derivatives with sulphur containing substituents” (Syngenta Participations AG, priority 2014, dated 2017).

Columns and labels:
Type in all cases: in vivo
[1] = tested on: Myzus persicae (Green Peach Aphid); assay: Myzus persicae (green peach aphid), sprayed sunflower leaf discs; conditions: foliar, 144 h, application rate of 200 ppm, mixed ages on sunflower leaf discs, 6 days after infestation
Method: Example B4: Myzus persicae (Green Peach Aphid)
Sunflower leaf discs were placed on agar in a 24-well microtiter plate and sprayed with aqueous test solutions prepared from 10′000 ppm DMSO stock solutions. After drying, the leaf discs were infested with an aphid population of mixed ages. The samples were assessed for mortality 6 days after infestation.

[2] = tested on: Bemisia tabaci (Cotton White Fly); assay: Bemisia tabaci (cotton white fly), sprayed cotton leaf discs; conditions: foliar, 144 h, application rate of 200 ppm, adult white flies on cotton leaf discs, 6 days after incubation
Method: Example B1: Bemisia tabaci (Cotton White Fly)
Cotton leaf discs were placed on agar in 24-well microtiter plates and sprayed with aqueous test solutions prepared from 10′000 ppm DMSO stock solutions. After drying the leaf discs were infested with adult white flies. The samples were checked for mortality 6 days after incubation.

[3] = tested on: Euschistus heros (Neotropical Brown Stink Bug); assay: Euschistus heros (neotropical brown stink bug), sprayed soybean leaf; conditions: 120 h, application rate of 200 ppm, N-2 nymphs on soybean leaf, 5 days after infestation
Method: Example B3: Euschistus heros (Neotropical Brown Stink Bug)
Soybean leaf on agar in 24-well microtiter plates were sprayed with aqueous test solutions prepared from 10′000 ppm DMSO stock solutions. After drying the leaf were infested with N-2 nymphs. The samples were assessed for mortality in comparison to untreated samples 5 days after infestation.

[4] = tested on: Diabrotica balteata (Corn Root Worm); assay: Diabrotica balteata (corn root worm), sprayed maize sprouts; conditions: 96 h, application rate of 200 ppm, L2 larvae on maize sprouts, 4 days after infestation
Method: Example B2: Diabrotica balteata (Corn Root Worm)
Maize sprouts, placed on an agar layer in 24-well microtiter plates were treated with aqueous test solutions prepared from 10′000 ppm DMSO stock solutions by spraying. After drying, the plates were infested with L2 larvae (6 to 10 per well). The samples were assessed for mortality and growth inhibition in comparison to untreated samples 4 days after infestation.

[5] = tested on: Myzus persicae (Green Peach Aphid); assay: Myzus persicae (green peach aphid), roots of pea seedlings in test solution; conditions: 144 h, test rate of 24 ppm, roots of infested pea seedlings in test solution, 6 days
Method: Example B5: Myzus persicae (Green Peach Aphid)
Roots of pea seedlings infested with an aphid population of mixed ages were placed directly in the aqueous test solutions prepared from 10′000 DMSO stock solutions. The samples were assessed for mortality 6 days after placing seedlings in test solutions.

[6] = tested on: Spodoptera littoralis (Egyqptian Cotton Leaf Worm); assay: Spodoptera littoralis (Egyptian cotton leaf worm), sprayed cotton leaf discs; conditions: foliar, 72 h, application rate of 200 ppm, L1 larvae on cotton leaf discs, 3 days after infestation
Outline: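 Cotton leaf discs on agar were sprayed with aqueous dilutions made from 10′000 ppm DMSO stocks, then infested after drying with five L1 larvae. Mortality, anti-feedant effect and growth inhibition were scored against untreated discs 3 days after infestation. Control means at least one of these exceeds the untreated sample.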

[7] = tested on: Plutella xylostella (Diamond Back Moth); assay: Plutella xylostella (diamond back moth), treated artificial diet; conditions: 120 h, application rate of 200 ppm, L2 larvae on artificial diet, 5 days after infestation, read-out: effect in at least one of the two categories (mortality or growth inhibition)
Outline: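 Artificial diet treated with aqueous dilutions of DMSO stocks (10′000 ppm stock), dried, then infested with 10-15 L2 larvae per well. Mortality and growth inhibition assessed versus untreated controls 5 days after infestation.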

[8] = tested on: Spodoptera littoralis (Egyqptian Cotton Leaf Worm); assay: Spodoptera littoralis (Egyptian cotton leaf worm), compound in agar taken up by lettuce roots; conditions: 144 h, test rate of 12.5 ppm, uptake by lettuce roots from agar, 6 days after infestation, read-out: effect in at least one of the three categories (mortality, anti-feedancy, or growth inhibition)
Description: Example B8: Spodoptera littoralis (Egyqptian Cotton Leaf Worm)
Test compounds were applied by pipette from 10′000 ppm DMSO stock solutions into 24-well plates and mixed with agar. Lettuce seeds were placed on the agar and the multi well plate was closed by another plate which contains also agar. After 7 days the roots have absorbed the compound and the lettuce has grown into the lid plate. The lettuce leafs were now cut off into the lid plate. Spodoptera eggs were pipetted through a plastic stencil on a humid gel blotting paper and the plate closed with it. The samples were assessed for mortality, anti-feedant effect and growth inhibition in comparison to untreated samples 6 days after infestation.
The following compounds gave an effect of at least 80% in at least one of the three categories (mortality, anti-feedancy, or growth inhibition) at a test rate of 12.5 ppm: […]

[9] = tested on: Frankliniella occidentalis (Western Flower Thrips); assay: Frankliniella occidentalis (western flower thrips), sprayed sunflower leaf discs; conditions: foliar, 168 h, application rate of 200 ppm, mixed ages on sunflower leaf discs, 7 days after infestation
Method: Example B11: Frankliniella occidentalis (Western Flower Thrips)
Sunflower leaf discs were placed on agar in 24-well microtiter plates and sprayed with aqueous test solutions prepared from […] stock solutions. After drying the leaf discs were infested with a Frankliniella population of mixed ages. The samples were assessed for mortality 7 days after infestation.

CCS(=O)(=O)c1cc(-c2ccnnc2)cnc1-c1nc2cc(C(F)(F)F)ncc2n1C [Compound P33]
≥ 80%: mortality at 200 ppm [1] | mortality at 200 ppm [2] | mortality at 200 ppm [3] | mortality at 200 ppm [4] | mortality at 24 ppm [5]

CCS(=O)(=O)c1cc(-n2cccn2)cnc1-c1nc2cc(C(F)(F)F)ncc2n1C [Compound P84]
≥ 80%: percent control (mortality, anti-feedant effect or growth inhibition) at 200 ppm [6] | mortality at 200 ppm [1] | mortality at 200 ppm [3] | percent effect (mortality or growth inhibition) at 200 ppm [7] | percent control (mortality, anti-feedancy or growth inhibition) at 12.5 ppm [8] | mortality at 200 ppm [4] | mortality at 24 ppm [5]

CCS(=O)(=O)c1cc(-c2ccnc(C)c2)cnc1-c1nc2cc(C(F)(F)F)ncc2n1C [Compound P53]
≥ 80%: percent control (mortality, anti-feedant effect or growth inhibition) at 200 ppm [6] | mortality at 200 ppm [1] | mortality at 200 ppm [3] | percent effect (mortality or growth inhibition) at 200 ppm [7] | percent control (mortality, anti-feedancy or growth inhibition) at 12.5 ppm [8] | mortality at 24 ppm [5]

CCS(=O)(=O)c1cc(-c2cncc(C#N)c2)cnc1-c1nc2cc(C(F)(F)F)ncc2n1C [Compound P67]
≥ 80%: mortality at 200 ppm [1] | mortality at 200 ppm [2] | mortality at 200 ppm [3] | percent effect (mortality or growth inhibition) at 200 ppm [7] | mortality at 200 ppm [4] | mortality at 24 ppm [5]

CCS(=O)(=O)c1cc(-c2ncccc2Cl)cnc1-c1nc2cc(C(F)(F)F)ncc2n1C [Compound P32]
≥ 80%: percent control (mortality, anti-feedant effect or growth inhibition) at 200 ppm [6] | mortality at 200 ppm [1] | mortality at 200 ppm [9] | mortality at 200 ppm [3] | percent effect (mortality or growth inhibition) at 200 ppm [7] | percent control (mortality, anti-feedancy or growth inhibition) at 12.5 ppm [8] | mortality at 200 ppm [4]

CCS(=O)(=O)c1cc(-c2ncncc2F)cnc1-c1nc2cc(C(F)(F)F)ncc2n1C [Compound P61]
≥ 80%: percent control (mortality, anti-feedant effect or growth inhibition) at 200 ppm [6] | mortality at 200 ppm [1] | mortality at 200 ppm [3] | percent effect (mortality or growth inhibition) at 200 ppm [7] | percent control (mortality, anti-feedancy or growth inhibition) at 12.5 ppm [8] | mortality at 200 ppm [4] | mortality at 24 ppm [5]

CCS(=O)(=O)c1cc(-c2ccc(Cl)nc2)cnc1-c1nc2cc(C(F)(F)F)ncc2n1C [Compound P96]
≥ 80%: percent control (mortality, anti-feedant effect or growth inhibition) at 200 ppm [6] | mortality at 200 ppm [1] | mortality at 200 ppm [9] | mortality at 200 ppm [2] | mortality at 200 ppm [3] | percent effect (mortality or growth inhibition) at 200 ppm [7] | percent control (mortality, anti-feedancy or growth inhibition) at 12.5 ppm [8] | mortality at 200 ppm [4]

CCS(=O)(=O)c1cc(-c2ncc(C)cn2)cnc1-c1nc2cc(C(F)(F)F)ncc2n1C [Compound P22]
≥ 80%: percent control (mortality, anti-feedant effect or growth inhibition) at 200 ppm [6] | mortality at 200 ppm [1] | mortality at 200 ppm [2] | mortality at 200 ppm [3] | percent effect (mortality or growth inhibition) at 200 ppm [7] | percent control (mortality, anti-feedancy or growth inhibition) at 12.5 ppm [8] | mortality at 200 ppm [4] | mortality at 24 ppm [5]

CCS(=O)(=O)c1cc(-c2ccc(C(F)(F)F)nc2)cnc1-c1nc2cc(C(F)(F)F)ncc2n1C [Compound P5]
≥ 80%: percent control (mortality, anti-feedant effect or growth inhibition) at 200 ppm [6] | mortality at 200 ppm [1] | mortality at 200 ppm [9] | mortality at 200 ppm [2] | mortality at 200 ppm [3] | percent effect (mortality or growth inhibition) at 200 ppm [7] | percent control (mortality, anti-feedancy or growth inhibition) at 12.5 ppm [8] | mortality at 200 ppm [4] | mortality at 24 ppm [5]

CCS(=O)(=O)c1cc(-c2nccc(OC)n2)cnc1-c1nc2cc(C(F)(F)F)ncc2n1C [Compound P104]
≥ 80%: percent control (mortality, anti-feedant effect or growth inhibition) at 200 ppm [6] | mortality at 200 ppm [1] | mortality at 200 ppm [9] | mortality at 200 ppm [3] | percent effect (mortality or growth inhibition) at 200 ppm [7] | percent control (mortality, anti-feedancy or growth inhibition) at 12.5 ppm [8] | mortality at 200 ppm [4]

CCS(=O)(=O)c1cc(-c2cccc[n+]2O)cnc1-c1nc2cc(C(F)(F)F)ncc2n1C [Compound P56]
≥ 80%: percent control (mortality, anti-feedant effect or growth inhibition) at 200 ppm [6] | mortality at 200 ppm [1] | mortality at 200 ppm [9] | mortality at 200 ppm [3] | percent effect (mortality or growth inhibition) at 200 ppm [7] | percent control (mortality, anti-feedancy or growth inhibition) at 12.5 ppm [8] | mortality at 200 ppm [4] | mortality at 24 ppm [5]

CCS(=O)(=O)c1cc(-c2cnn(C)c2)cnc1-c1nc2cc(C(F)(F)F)ncc2n1C [Compound P6]
≥ 80%: percent control (mortality, anti-feedant effect or growth inhibition) at 200 ppm [6] | mortality at 200 ppm [1] | mortality at 200 ppm [2] | mortality at 200 ppm [3] | percent effect (mortality or growth inhibition) at 200 ppm [7] | percent control (mortality, anti-feedancy or growth inhibition) at 12.5 ppm [8] | mortality at 200 ppm [4] | mortality at 24 ppm [5]

CCS(=O)(=O)c1cc(-c2ccnc(F)c2)cnc1-c1nc2cc(C(F)(F)F)ncc2n1C [Compound P70]
≥ 80%: percent control (mortality, anti-feedant effect or growth inhibition) at 200 ppm [6] | mortality at 200 ppm [1] | mortality at 200 ppm [9] | mortality at 200 ppm [2] | mortality at 200 ppm [3] | percent effect (mortality or growth inhibition) at 200 ppm [7] | percent control (mortality, anti-feedancy or growth inhibition) at 12.5 ppm [8] | mortality at 200 ppm [4] | mortality at 24 ppm [5]
